Consider 22 compounds from patent US20250289799A1, “PYRIMIDINE COMPOUND, METHOD FOR PREPARING SAME, AND PHARMACEUTICAL USE THEREOF” (JIANGSU YAHONG MEDITECH CO., LTD., priority 2022, published 2025).

For one test, the system named is MDA-MB-436. In words: CTG experiment on cell activity (CellTiter-Glo, 7 days). The conditions noted are these: MDA-MB-436 cells, cultured for 7 days. Type of test: cell-based. Here is the method:
• 1. Object: USP1 inhibitors were screened on 96-well plate by CTG assay. • 2. Materials: • The cells used were MDA-MB-436 (manufacturer: Nanjing Cobioer Biotechnology Co., Ltd.), and the culture medium was DMEM. • CTG (CellTiter-Glo® Luminescent Cell Viability Assay kit) (Promega, Catalog No.: G7572) • 96-well plate (Corning, Catalog No.: 3610) • 3. Compounds: • All compounds were dissolved in 100% DMSO to obtain 50 mM stock solutions. • 4. Experimental methods:
The cells to be tested were spread into a 96-well plate at a certain density at 200 μL per well, and 200 μL of cell culture medium was added to the blank well. The spread cell plate was placed in a 37° C. incubator.
The compound was diluted to different concentrations with 100% DMSO, and the final concentration of DMSO was 4%.
The compound formulated in (2) was added to the cell plate of (1) (10 μL per well). The cell plate with the compound added was placed in a 37° C. incubator, and cultured for 7 days before assay.
The substrate and buffer of the CTG kit were mixed evenly. The cell plate with the compound added in (3) was taken out from the incubator, and placed at room temperature for 30 minutes. The compound-containing culture medium in the cell plate was removed, 100 μL of PBS and 50 μL of CTG reagent were added to each well. The mixture in each well was mixed and shaked for 3 minutes, and then incubated at room temperature for 10 minutes. The plate was read by BIotek microplate reader, and the parameter was 567 CPM. • 5. Curve fitting • Same as enzyme assay.
In general terms: Cellular ATP, detected with luciferase, serves as a proxy for viable cell number.

Test [1] deals with Recombinant human His6-USP1/His6-UAF1 complex protein (Homo sapiens (Human), UniProt O94782). The test is described as follows: In vitro , fluorescence detection with Ub-Rho substrate. The class given is biochemical. How it is done: Experimental object: The USP1 […] inhibitory activity of the compounds was screened by fluorescence detection method using 384-well plates.
Experimental materials: Recombinant human His6-USP1/His6-UAF1 complex protein (R&D, Catalog No.: E-568-050), ubiquitin rhodamine 110 protein (Ub-Rho) (R&D, Catalog No.: U-555-050), 384-well plate (Perkin Elmer, Catalog No.: 6007279); all compounds were dissolved in 100% DMSO to obtain a 50 mM stock solution.
• 1) Preparation of 1× assay buffer: 1× assay buffer (modified Tris buffer) was prepared; • 2) Compound dilution: The compound was transferred to the assay plate by Echo. The final concentration of DMSO is 1%; • 3) Preparation of enzyme solution: Recombinant human His6-USP1/His6-UAF1 complex protein was added to 1× assay buffer to obtain an enzyme solution; • 4) Preparation of substrate solution: Ubiquitin rhodamine 110 protein CF (Ub-Rho) was added to 1× assay buffer to obtain a substrate solution; • 5) 10 μL enzyme solution was transferred to the assay plate, and 10 μL 1× assay buffer was added to the control well; • 6) The plate was incubated at room temperature for 1 hour; • 7) 10 μL substrate solution was added to each well to start the reaction, and the plate was centrifuged for 30 seconds, and shaked for 30 seconds; • 8) The plate was read with Envision after 30 minutes, and the parameters were excitation light 480 nm and emission light 540 nm; • 9) The data was collected and summarized; • 10) Curve fitting: The data was fitted in Excel, Inhibition rate formula: Percent inhibition rate=(maximum value−signal value)/(maximum value−minimum value)×100; the data was fitted in XL-Fit, • Half inhibition concentration formula: Percent inhibition rate=minimum concentration+(maximum concentration−minimum concentration)/(1+(half inhibition concentration/compound concentration)^slope); • Half inhibition concentration is referred to as IC50 hereinafter.

Chain of Recombinant human His6-USP1/His6-UAF1 complex protein (O94782 whole entry): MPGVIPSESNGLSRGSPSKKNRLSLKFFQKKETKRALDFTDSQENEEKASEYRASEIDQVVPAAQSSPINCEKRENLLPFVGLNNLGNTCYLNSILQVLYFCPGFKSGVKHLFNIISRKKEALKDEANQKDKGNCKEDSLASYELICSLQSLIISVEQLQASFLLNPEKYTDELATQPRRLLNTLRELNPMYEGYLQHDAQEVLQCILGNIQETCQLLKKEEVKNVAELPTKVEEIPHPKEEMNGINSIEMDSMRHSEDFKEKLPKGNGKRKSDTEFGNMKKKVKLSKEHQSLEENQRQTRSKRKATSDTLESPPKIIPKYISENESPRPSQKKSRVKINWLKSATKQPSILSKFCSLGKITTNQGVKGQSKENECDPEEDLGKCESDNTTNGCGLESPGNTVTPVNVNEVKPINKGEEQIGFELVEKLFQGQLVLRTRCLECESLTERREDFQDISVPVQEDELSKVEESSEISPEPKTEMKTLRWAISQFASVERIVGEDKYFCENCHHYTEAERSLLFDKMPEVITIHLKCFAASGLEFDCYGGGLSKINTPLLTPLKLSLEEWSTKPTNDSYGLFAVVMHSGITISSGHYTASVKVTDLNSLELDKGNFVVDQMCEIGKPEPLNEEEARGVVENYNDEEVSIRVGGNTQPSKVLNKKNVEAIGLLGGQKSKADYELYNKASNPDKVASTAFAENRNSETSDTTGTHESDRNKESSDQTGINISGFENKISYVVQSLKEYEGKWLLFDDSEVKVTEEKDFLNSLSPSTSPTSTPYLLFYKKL
Chain of Recombinant human His6-USP1/His6-UAF1 complex protein (Q8TAF3 whole entry partner): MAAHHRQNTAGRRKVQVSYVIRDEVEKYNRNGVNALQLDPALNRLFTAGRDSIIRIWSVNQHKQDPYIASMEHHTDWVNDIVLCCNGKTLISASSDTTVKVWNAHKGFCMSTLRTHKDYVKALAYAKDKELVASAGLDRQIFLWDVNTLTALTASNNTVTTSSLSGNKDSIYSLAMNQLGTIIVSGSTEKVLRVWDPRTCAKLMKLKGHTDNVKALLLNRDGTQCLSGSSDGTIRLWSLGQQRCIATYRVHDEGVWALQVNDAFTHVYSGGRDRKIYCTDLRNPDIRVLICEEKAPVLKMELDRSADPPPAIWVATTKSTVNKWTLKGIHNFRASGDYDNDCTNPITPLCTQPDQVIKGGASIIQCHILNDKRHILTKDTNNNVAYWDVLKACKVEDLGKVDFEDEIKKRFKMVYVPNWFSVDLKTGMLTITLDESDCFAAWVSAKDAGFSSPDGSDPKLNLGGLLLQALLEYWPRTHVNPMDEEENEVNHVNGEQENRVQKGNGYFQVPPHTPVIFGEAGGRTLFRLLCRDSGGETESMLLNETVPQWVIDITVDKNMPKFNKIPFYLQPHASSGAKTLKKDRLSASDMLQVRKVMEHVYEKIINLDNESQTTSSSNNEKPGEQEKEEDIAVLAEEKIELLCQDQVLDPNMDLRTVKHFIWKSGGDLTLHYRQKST

With `CC(C)c1ccccc1-c1nc(NCc2ccc3c(c2)CCN(C)C3=O)c2occc2n1` [Example 77, 6-(((2-(2-Isopropylphenyl)furo[3,2-d]pyrimidin-4-yl)amino)methyl)-2-methyl-3,4-dihydroisoquinolin-1(2H)-one], in the test with MDA-MB-436 (Homo sapiens, 168 h), it took 1800 nM to reach half-maximal inhibition (IC50).

For the compound `COc1cnc(-c2cccc3ccn(C)c23)nc1NCc1ccc(-c2nc(C(F)(F)F)cn2C)cc1` [Example 143, 5-Methoxy-2-(1-methyl-1H-indol-7-yl)-N-(4-(1-methyl-4-(trifluoromethyl)-1H-imidazol-2-yl)benzyl)pyrimidin-4-amine], the IC50 (commonly the point on the concentration scale where inhibition reaches its midpoint) in the test on MDA-MB-436 (Homo sapiens, 168 h) is 1440 nM.

`COc1cnc(-c2ccccc2C(C)C)nc1NCc1ccc(OCc2ccccn2)cc1` [Example 67, 2-(2-Isopropylphenyl)-5-methoxy-N-(4-(pyridin-2-ylmethoxy)benzyl)pyrimidin-4-amine]: the IC50 in the test on MDA-MB-436 (Homo sapiens, 168 h) was 1170 nM.

As to `COc1cnc(-c2c(C)ncn2C(C)C)nc1NCC12CCC(c3ccc(C(F)(F)F)cn3)(CC1)CC2` [Example 148, 2-(1-Isopropyl-4-methyl-1H-imidazol-5-yl)-5-methoxy-N-((4-(5-(trifluoromethyl)pyridin-2-yl)bicyclo[2.2.2]octan-1-yl)methyl)pyrimidin-4-amine], the IC50 in test [1] was 1050 nM.

Compound `COc1ncnc(C2CC2)c1-c1nc(NCc2ccc(-c3ccccn3)cc2)c2[nH]ccc2n1` [Example 37, 2-(4-Cyclopropyl-6-methoxypyrimidin-5-yl)-N-(4-(pyridin-2-yl)benzyl)-5H-pyrrolo[3,2-d]pyrimidin-4-amine] yielded an IC50 in the test with MDA-MB-436 (Homo sapiens, 168 h) of over 5000 nM.

As to `COc1cnc(-c2cccc3ccn(C)c23)nc1NCc1ccc(-n2nc(C(F)(F)F)cc2C)cc1` [Example 144, 5-Methoxy-2-(1-methyl-1H-indol-7-yl)-N-(4-(5-methyl-3-(trifluoromethyl)-1H-pyrazol-1-yl)benzyl)pyrimidin-4-amine], in the test with MDA-MB-436 (Homo sapiens, 168 h), the IC50 was found to be 1670 nM.

The compound `COc1ncnc(C2CC2)c1-c1nc(NCc2ccc(OC3CC(OC)C3)cc2)c2occc2n1` (centres unmarked) [Example 118, 2-(4-Cyclopropyl-6-methoxypyrimidin-5-yl)-N-(4-(3-methoxycyclobutoxy)benzyl)furo[3,2-d]pyrimidin-4-amine] yielded an IC50 with MDA-MB-436 (Homo sapiens, 168 h) of 1490 nM.

Compound `COc1ncnc(C2CC2)c1-c1ncc(OC(C)C)c(NCC23CCC(c4ccc(C(F)(F)F)cn4)(CC2)CC3)n1` [Example 112, 4′-Cyclopropyl-5-isopropoxy-6′-methoxy-N-((4-(5-(trifluoromethyl)pyridin-2-yl)bicyclo[2.2.2]octan-1-yl)methyl)-[2,5′-bipyrimidin]-4-amine] showed an IC50 with MDA-MB-436 (Homo sapiens, 168 h) of over 5000 nM.

Compound `COc1cnc(-c2ccccc2C(C)C)nc1N(C)Cc1ccc(-c2ccccn2)cc1` [Compound 1, 2-(2-isopropylphenyl)-5-methoxy-N-methyl-N-(4-(pyridin-2-yl)benzyl)pyrimidin-4-amine] returned a concentration for half-maximal inhibition (IC50) with MDA-MB-436 (Homo sapiens, 168 h) of 1270 nM.

`COC1CC(Oc2ccc(CNc3nc(-c4ccccc4C(C)C)nc4ccoc34)cc2)C1` (centres unmarked) [Example 80, 2-(2-Isopropylphenyl)-N-(4-(3-methoxycyclobutoxy)benzyl)furo[3,2-d]pyrimidin-4-amine] gave an IC50 with MDA-MB-436 (Homo sapiens, 168 h) of over 5000 nM.

For the compound `COc1ncnc(C2CC2)c1-c1nc(NCc2ccc(-c3ccccn3)cc2)c2occc2n1` [Example 34, 2-(4-Cyclopropyl-6-methoxypyrimidin-5-y1)-N-(4-(pyridin-2-yl)benzyl)furo[3,2-d]pyrimidin-4-amine], in test [1], the IC50 is 6.9 nM.

In turn, `CC(C)c1ccccc1-c1nc(NCc2ccc3c(c2)CCN(C(C)C)C3=O)c2occc2n1` [Example 78, 2-Isopropyl-6-(((2-(2-isopropylphenyl)furo[3,2-d]pyrimidin-4-yl)amino)methyl)-3,4-dihydroisoquinolin-1(2H)-one] registered an IC50 with MDA-MB-436 (Homo sapiens, 168 h) of over 5000 nM.

`CC(C)c1ccccc1-c1ncc(N2CCOCC2)c(NCc2ccc(-c3nc(C(F)(F)F)cn3C)cc2)n1` [Example 87, 2-(2-Isopropylphenyl)-N-(4-(1-methyl-4-(trifluoromethyl)-1H-imidazol-2-yl)benzyl)-5-morpholinopyrimidin-4-amine] came in with an IC50 in the test with MDA-MB-436 (Homo sapiens, 168 h) of 2650 nM.

As to `COc1cnc(-c2cccc3c2N(C)CC3)nc1NCc1ccc(-n2ncc(C(F)(F)F)c2C)cc1` [Example 146, 5-Methoxy-N-(4-(5-methyl-4-(trifluoromethyl)-1H-pyrazol-1-yl)benzyl)-2-(1-methylindolin-7-yl)pyrimidin-4-amine], the IC50 in the test on MDA-MB-436 (Homo sapiens, 168 h) was found to be 1060 nM.

As for `COc1ncnc(C2CC2)c1-c1nc(NCc2ccc3c(c2)CCN(C)C3=O)c2occc2n1` [Example 114, 6-(((2-(4-Cyclopropyl-6-methoxypyrimidin-5-yl)furo[3,2-d]pyrimidin-4-yl)amino)methyl)-2-methyl-3,4-dihydroisoquinolin-1(2H)-one], the IC50 in the test with MDA-MB-436 (Homo sapiens, 168 h) was over 5000 nM.

`CC(C)c1ccccc1-c1ncc2c(n1)N(C[C@H]1CC[C@H](c3nc(C(F)(F)F)cn3C)CC1)CCO2` [Compound 13, 2-(2-Isopropylphenyl)-8-(((1R,4R)-4-(1-methyl-4-(trifluoromethyl)-1H-imidazol-2-yl)cyclohexyl)methyl)-7,8-dihydro-6H-pyrimido[5,4-b][1,4]oxazine]: the IC50 in test [1] was found to be 1.9 nM.

As for `COc1cnc(-c2ccccc2C(C)C)nc1NCC1CCC(c2nc(C(F)(F)F)cn2C)CC1` [Compound 6, 2-(2-Isopropylphenyl)-5-methoxy-N-(((1R,4R)-4-(1-methyl-4-(trifluoromethyl)-1H-imidazol-2-yl)cyclohexyl)methyl)pyrimidin-4-amine], the IC50 with MDA-MB-436 (Homo sapiens, 168 h) was determined as 2 nM.

Take `CC(C)c1ccccc1-c1ncc2c(n1)N(C[C@H]1CC[C@@H](c3nc(C(F)(F)F)cn3C)CC1)CCO2` [Compound 14, 2-(2-Isopropylphenyl)-8-(((1s,4s)-4-(1-methyl-4-(trifluoromethyl)-1H-imidazol-2-yl)cyclohexyl)methyl)-7,8-dihydro-6H-pyrimido[5,4-b][1,4]oxazine]: the IC50 in test [1] came to 60 nM.

For the compound `COc1ncnc(C2CC2)c1-c1nc(NCc2ccc3c(c2)CCN(C(C)C)C3=O)c2occc2n1` [Example 115, 6-(((2-(4-Cyclopropyl-6-methoxypyrimidin-5-yl)furo[3,2-d]pyrimidin-4-yl)amino)methyl)-2-isopropyl-3,4-dihydroisoquinolin-1(2H)-one], the IC50 in the test on MDA-MB-436 (Homo sapiens, 168 h) was 1610 nM.

In turn, `CCOCCOc1ccc(CNc2nc(-c3ccccc3C(C)C)nc3ccoc23)cc1` [Example 79, N-(4-(2-Ethoxyethoxy)benzyl)-2-(2-isopropylphenyl)furo[3,2-d]pyrimidin-4-amine] showed an IC50 with MDA-MB-436 (Homo sapiens, 168 h) of 1210 nM.

For `COc1ncnc(C2CC2)c1-c1ncc2c(n1)N(CC1CCC(c3nc(C(F)(F)F)cn3C)CC1)CCO2` (centres unmarked) [Compound 22, 2-(4-Cyclopropyl-6-methoxypyrimidin-5-y1)-8-(((1r,4r)-4-(1-methyl-4-(trifluoromethyl)-1H-imidazol-2-yl)cyclohexyl)methyl)-7,8-dihydro-6H-pyrimido[5,4-b][1,4]oxazine], in the test with MDA-MB-436 (Homo sapiens, 168 h), half-maximal inhibition (IC50) required 209 nM.

Take `COc1cnc(-c2c(OC)ncnc2C2CC2)nc1NCC12C3C4C1C1C2C3C41c1nc(C(F)(F)F)cn1C` (centres unmarked) [Example 215]: the IC50 in the test with MDA-MB-436 was found to be 8.7 nM; in test [1] it was 2.2 nM.
